# Reference: patent US20080076927A1, “Synthetic Methods and Intermediates for Stereoisomeric Compounds Useful for the Treatment of Gastrointestinal and Central Nervous System Disorders” (ARYx Therapeutics, Inc., priority 2005, published 2008)
# Read-outs that look alike come from different tables or passages of the source.
# Experiments:
# [1] = target: 2D6 (Homo sapiens, UniProt P10635)
# [2] = target: 2C9 (Homo sapiens, UniProt P11712)
# [3] = target: CYP3A4 (Homo sapiens, UniProt P08684); conditions: recombinant enzyme
# Sequence of CYP3A4 (P08684 whole entry): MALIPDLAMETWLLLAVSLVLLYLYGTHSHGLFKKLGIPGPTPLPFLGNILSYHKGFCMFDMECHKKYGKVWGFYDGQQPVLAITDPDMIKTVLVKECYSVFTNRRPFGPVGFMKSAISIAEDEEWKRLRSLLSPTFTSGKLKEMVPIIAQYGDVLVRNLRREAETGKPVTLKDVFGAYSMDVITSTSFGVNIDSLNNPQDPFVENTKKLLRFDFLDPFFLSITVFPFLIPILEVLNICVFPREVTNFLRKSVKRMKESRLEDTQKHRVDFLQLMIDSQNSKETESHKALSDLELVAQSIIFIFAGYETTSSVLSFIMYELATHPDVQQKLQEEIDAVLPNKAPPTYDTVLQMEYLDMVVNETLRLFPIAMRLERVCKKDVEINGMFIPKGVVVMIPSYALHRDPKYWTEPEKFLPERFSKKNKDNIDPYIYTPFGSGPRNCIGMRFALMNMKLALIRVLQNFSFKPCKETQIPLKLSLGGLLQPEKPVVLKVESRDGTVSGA
# [4] = assay type: in vitro ADME, human; conditions: for dependence of metabolism on NADPH / CYP450: microsomes
# Experimental: ATI-7505 (2 μM) was incubated with human microsomal protein (1 mg) in the presence or absence of NADPH regenerating system (cofactor).
# Thus the major biotransformation pathway for ATI-7505 occurs independently of CYP450 enzymes.
# The metabolism of these compounds was studied in pooled human microsomes in the presence and absence of the Cytochrome P-450 cofactor NADPH and both the disappearance of parent and the appearance of the corresponding acid metabolite, i.e., the corresponding compound-II isomer, monitored with time.
# In this experiment, the amount of substrate (compounds III, IV, V, and VI) remaining in the reaction after 5, 60, and 90 minutes were evaluated by a tandem HPLC-MS method. This remaining amount was correlated with the appearance of the metabolite compound II.
# [5] = test system: isolated, perfused guinea pig hearts
# [6] = target: T1, 5-HT4 Receptor (Cavia porcellus, UniProt O70528); experiment: 5-HT4 Receptor Binding, Guinea Pig Striatum, [3H]GR113808; design: Guinea Pig Striatum; from tissue; host or cells: guinea pig striatum
# T1 sequence (O70528 whole entry): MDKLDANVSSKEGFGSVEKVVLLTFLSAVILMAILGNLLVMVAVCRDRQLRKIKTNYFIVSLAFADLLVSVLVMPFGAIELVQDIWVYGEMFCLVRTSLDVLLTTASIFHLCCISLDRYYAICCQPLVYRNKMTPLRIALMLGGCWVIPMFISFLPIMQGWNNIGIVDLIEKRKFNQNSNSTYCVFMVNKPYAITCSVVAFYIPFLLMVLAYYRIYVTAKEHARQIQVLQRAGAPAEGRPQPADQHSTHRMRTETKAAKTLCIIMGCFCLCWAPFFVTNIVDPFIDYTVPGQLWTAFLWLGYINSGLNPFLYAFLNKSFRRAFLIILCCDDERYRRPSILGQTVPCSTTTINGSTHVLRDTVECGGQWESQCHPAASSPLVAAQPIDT
# [7] = target: T2, human IKr (HERG K+ channels) (Homo sapiens, UniProt Q12809); experiment: whole cell patch-clamp of IKr in HEK-293 cells expressing the HERG K+ channels; assay type: cell-based
# T2 construct: expressed in transfected cells; host or cells: HEK-293
# T2 sequence (Q12809 whole entry): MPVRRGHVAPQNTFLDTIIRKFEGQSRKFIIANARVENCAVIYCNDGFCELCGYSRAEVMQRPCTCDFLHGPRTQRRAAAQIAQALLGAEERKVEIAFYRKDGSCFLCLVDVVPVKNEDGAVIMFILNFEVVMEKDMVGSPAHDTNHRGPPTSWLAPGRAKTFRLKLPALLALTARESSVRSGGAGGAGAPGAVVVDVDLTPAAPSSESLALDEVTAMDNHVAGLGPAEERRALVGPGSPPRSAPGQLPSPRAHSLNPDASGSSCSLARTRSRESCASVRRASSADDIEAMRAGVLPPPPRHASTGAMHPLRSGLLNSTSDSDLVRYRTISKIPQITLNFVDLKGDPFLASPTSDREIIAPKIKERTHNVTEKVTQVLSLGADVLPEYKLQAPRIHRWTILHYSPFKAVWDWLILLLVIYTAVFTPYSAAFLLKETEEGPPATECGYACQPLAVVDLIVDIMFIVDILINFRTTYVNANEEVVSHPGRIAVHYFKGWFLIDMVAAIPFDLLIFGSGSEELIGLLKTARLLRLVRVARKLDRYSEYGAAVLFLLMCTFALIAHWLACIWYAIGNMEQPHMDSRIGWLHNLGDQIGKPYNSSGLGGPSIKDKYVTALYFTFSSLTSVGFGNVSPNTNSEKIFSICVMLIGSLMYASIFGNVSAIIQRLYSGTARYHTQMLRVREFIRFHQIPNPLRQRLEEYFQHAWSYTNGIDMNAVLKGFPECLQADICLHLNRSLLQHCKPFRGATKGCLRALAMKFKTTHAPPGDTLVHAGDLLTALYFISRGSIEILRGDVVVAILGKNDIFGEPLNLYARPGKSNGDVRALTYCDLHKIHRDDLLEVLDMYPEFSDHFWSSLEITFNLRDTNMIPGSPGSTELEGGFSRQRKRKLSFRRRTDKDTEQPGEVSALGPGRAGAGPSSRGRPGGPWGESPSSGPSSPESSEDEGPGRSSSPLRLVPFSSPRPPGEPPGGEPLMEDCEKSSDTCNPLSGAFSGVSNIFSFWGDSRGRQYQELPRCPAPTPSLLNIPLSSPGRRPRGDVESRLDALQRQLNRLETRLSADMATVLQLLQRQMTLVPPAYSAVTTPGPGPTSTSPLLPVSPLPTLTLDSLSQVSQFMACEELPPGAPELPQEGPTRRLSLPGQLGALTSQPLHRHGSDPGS
# Experimental: The test system was mammalian HEK-293 cells expressing the HERG K+ channels, in which the potassium current was measured by whole cell patch-clamp technique.
# [8] = test system: esterases in human plasma
# [9] = test system: fasted, conscious dogs; conditions: for antral and small bowel contractility, colonic motor activity / prokinetic effects in the dog gut: IV and PO; for migrating motor complex (MMC) characteristics: antrum, proximal, mid and distal small intestine
# [10] = test system: fed dogs; experiment: gastric emptying in fed conscious dogs (time of MMC return); conditions: IV infusion over 20 minutes before a solid meal
# Experimental: The data shown are normalized to the averaged vehicle control times of MMC return values.
# The objective of the experiments was to measure the time required for migrating motor contractions (MMCs) to return to baseline following ingestion of a solid meal. A drug-induced shortening of MMC return time indicated an early end of the digestive period due to accelerated gastric emptying. […] At the end of the drug infusion, the dogs were fed a meal. Gut contractions were recorded for a minimum of 60 minutes prior to the start of the drug infusion to establish the fasting state and to identify the onset of MMC in the duodenum, and at least 30 minutes after the return of MMC in the duodenum. Quantitative comparisons of the treatments were based on the time of MMC return as an index of gastric emptying following ingestion of a solid meal.
# [11] = target: T1, 5-HT4 Receptor; experiment: 5-HT4 receptor binding of the isomers of compound I, radiolabel displacement method; conditions: read-out: binding constant Ki
# [12] = Metabolism in Fresh Human Blood; assay type: in vitro ADME; conditions: for Half-life: 100 µM
# Experimental: Fresh blood was collected into heparinized tubes from 3 human donors and blood was stored on ice until incubation. Separate aliquots of blood from each donor were pipetted into 1.5 mL centrifuge tubes and the tubes were pre-incubated in a shaking water bath at 37° C. for 5 minutes. The reaction was initiated by the addition of 10 μL of the appropriate test compound stock to each tube (final concentration=100 μM). Incubations were quenched after 0, 5, 15, 30 and 60 minutes, by the addition of acetonitrile ([…]), centrifuged at 12,000 rpm for 2 minutes and the supernatant analyzed on an Agilent 1100 HPLC system. Separations were accomplished on a Keystone Intersil ODS2, 250×4.6 mm, […] column. The aqueous mobile phase consisted of 20 mM ammonium acetate buffer (pH 5.7) and the organic phase acetonitrile. A gradient was used: initial condition consisted of 20% acetonitrile for 1 minute. […] The system was then recycled to initial conditions over the course of 1 minute and held there for 4 minutes before the next injection. […] The results were expressed as amount of initial compound remaining and data subjected to kinetic analysis using WinNonLin. The half-lives for the individual compounds are given below in Table 6.
# [13] = target: T3, human 5-HT4 receptor (Homo sapiens, UniProt Q13639); experiment: adenylyl cyclase stimulation in cells engineered to stably express human 5-HT4 receptor; assay type: cell-based; conditions: for Efficacy % of 5HT (serotonin): estimated Emax relative to 5-HT
# T3 construct: expressed in transfected cells
# T3 sequence (Q13639 whole entry): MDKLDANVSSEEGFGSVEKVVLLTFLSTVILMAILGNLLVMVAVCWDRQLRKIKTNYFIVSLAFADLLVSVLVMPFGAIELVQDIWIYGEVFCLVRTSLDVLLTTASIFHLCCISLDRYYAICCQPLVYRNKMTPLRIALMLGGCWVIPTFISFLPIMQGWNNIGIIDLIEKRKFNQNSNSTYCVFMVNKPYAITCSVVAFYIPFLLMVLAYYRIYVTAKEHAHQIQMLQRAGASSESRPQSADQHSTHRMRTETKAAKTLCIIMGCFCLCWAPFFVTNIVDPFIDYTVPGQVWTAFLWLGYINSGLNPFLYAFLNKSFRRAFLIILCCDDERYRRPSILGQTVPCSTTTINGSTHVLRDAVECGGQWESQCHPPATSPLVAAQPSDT
# Text: ARYx performed in vitro assays based on adenylyl cyclase stimulation in cells engineered to stably express human 5-HT4 receptor. […] [table]
# [14] = July 1993 to December 1999; cited from earlier work
# [15] = in vivo; cited from earlier work
# [16] = tested at 10, 100, 1,000, and 10,000 nM
# Sequence of 2D6 (P10635 whole entry): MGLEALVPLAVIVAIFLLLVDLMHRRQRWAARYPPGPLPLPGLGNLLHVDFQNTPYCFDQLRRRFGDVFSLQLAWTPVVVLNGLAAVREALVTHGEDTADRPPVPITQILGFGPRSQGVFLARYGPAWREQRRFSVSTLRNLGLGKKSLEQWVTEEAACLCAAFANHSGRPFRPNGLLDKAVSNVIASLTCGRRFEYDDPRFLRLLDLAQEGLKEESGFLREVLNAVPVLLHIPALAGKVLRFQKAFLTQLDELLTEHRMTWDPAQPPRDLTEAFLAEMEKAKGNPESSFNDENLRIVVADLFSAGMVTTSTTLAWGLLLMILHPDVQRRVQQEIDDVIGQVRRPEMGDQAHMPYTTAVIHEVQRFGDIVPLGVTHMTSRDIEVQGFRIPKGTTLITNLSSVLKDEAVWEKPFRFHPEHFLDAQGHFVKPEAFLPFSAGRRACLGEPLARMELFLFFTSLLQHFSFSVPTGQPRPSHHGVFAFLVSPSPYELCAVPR
# Sequence of 2C9 (P11712 whole entry): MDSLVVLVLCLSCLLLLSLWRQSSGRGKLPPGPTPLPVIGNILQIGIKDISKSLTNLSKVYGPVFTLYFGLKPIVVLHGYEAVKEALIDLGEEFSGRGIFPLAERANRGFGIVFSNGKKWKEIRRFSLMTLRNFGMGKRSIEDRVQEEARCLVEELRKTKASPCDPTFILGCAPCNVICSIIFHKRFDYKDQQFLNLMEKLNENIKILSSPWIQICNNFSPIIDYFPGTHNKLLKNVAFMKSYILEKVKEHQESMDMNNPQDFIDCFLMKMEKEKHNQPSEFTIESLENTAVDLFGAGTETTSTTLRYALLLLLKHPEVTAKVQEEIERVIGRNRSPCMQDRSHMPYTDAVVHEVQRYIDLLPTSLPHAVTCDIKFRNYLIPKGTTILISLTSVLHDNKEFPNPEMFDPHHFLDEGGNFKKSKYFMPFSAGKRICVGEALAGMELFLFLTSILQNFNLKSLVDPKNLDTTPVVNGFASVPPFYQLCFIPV
compound,measurement,setting,value
"COc1cc(N)c(Cl)cc1C(=O)N[C@@H]1CCN(CCCCCC(=O)O)C[C@@H]1OC [ATI-7500, 6-((3S,4R)-4-(4-amino-5-chloro-2-methoxybenzamido)-3-methoxypiperidin-1-yl)hexanoic acid]",inhibitory activity against 2D6,[1]; human,"Neither ATI-7505 nor its primary metabolite, ATI-7500 displayed significant inhibitory activity"
same,inhibitory activity against 2C9,[2],"Neither ATI-7505 nor its primary metabolite, ATI-7500 displayed significant inhibitory activity"
same,inhibitory activity against CYP3A4,[3],"Neither ATI-7505 nor its primary metabolite, ATI-7500 displayed significant inhibitory activity"
same,biotransformation in pooled human microsomes,[4],does not appear to be subject to further metabolism
same,modulation of cardiac electrophysiologic parameters,[5],entirely lacked electrophysiological activity
same,IC50,"[6]; Guinea Pig Striatum, [3H]GR113808 (0.70 nM), read-out: IC50",> 3000 nM
same,Ki,"[6]; Guinea Pig Striatum, [3H]GR113808 (0.70 nM), read-out: Ki",> 500 nM
"COc1cc(N)c(Cl)cc1C(=O)N[C@@H]1CCN(CCCCCC(=O)O[C@H]2CN3CCC2CC3)C[C@@H]1OC [ATI-7505, (R)-quinuclidin-3-yl 6-((3S,4R)-4-(4-amino-5-chloro-2-methoxybenzamido)-3-methoxypiperidin-1-yl)hexanoate]",IC50,[7],24500 nM
same,"% IKr control (10,000 nM)","[7]; 10,000 nM, normalized to % control tail IKr",78.0%
same,inhibitory activity against 2D6,[1]; human,"Neither ATI-7505 nor its primary metabolite, ATI-7500 displayed significant inhibitory activity"
same,rate of metabolism by esterases in human plasma,[8],rapidly metabolized by esterases in human plasma
same,"antral and small bowel contractility, colonic motor activity",[9],dose-dependent stimulation of antral and small bowel contractility with relatively little effect on colonic motor activity
same,prokinetic effects in the dog gut,[9],caused prokinetic effects in the dog gut
same,MMC frequency in the proximal small intestine,"[9]; PO, relative to the controls",increased MMC frequency in the proximal small intestine relative to the controls
same,migrating motor complex (MMC) characteristics,[9],minimal effect
same,frequency of giant migrating contractions (GMC),"[9]; dog, in vivo",small but significant (p<0.05) increase
same,potency relative to cisapride on a mg/kg-basis,"[9]; dog, in vivo",approximately twice as potent as cisapride
same,retrograde giant migrating contractions (RGC),"[9]; dog, in vivo",not associated with the development of retrograde giant migrating contractions (RGC)
same,"tolerability, side effects","[9]; dog, in vivo","exhibited no side effects such as diarrhea, anorexia, or weight loss"
same,inhibitory activity against 2C9,[2],"Neither ATI-7505 nor its primary metabolite, ATI-7500 displayed significant inhibitory activity"
same,inhibitory activity against CYP3A4,[3],"Neither ATI-7505 nor its primary metabolite, ATI-7500 displayed significant inhibitory activity"
same,time of MMC return as an index of gastric emptying,[10],significantly shortened the time of MMC return
same,Ki,[11],1.4 nM
same,hydrolysis by esterase in human microsomes,[4],rapidly hydrolyzed by esterase
same,biotransformation in pooled human microsomes,"[4]; human, 2 µM","undergoes biotransformation to a single metabolite, ATI-7500"
same,dependence of metabolism on NADPH / CYP450,[4]; human,not dependent on CYP450
same,dependence of metabolism on NADPH / CYP450,[4],not dependent on the presence of NADPH
same,half-life at 100 µM,"[12]; fresh heparinized human blood, Mean ± SD of 3 subjects, 100 μM, 37° C., read-out: Half-life",8.59 ± 0.077 min
same,half-life at 100 µM,"[12]; fresh heparinized human blood, Subject 1, 100 μM, 37° C., read-out: Half-life",8.47 min
same,half-life at 100 µM,"[12]; fresh heparinized human blood, Subject 2, 100 μM, 37° C., read-out: Half-life",8.61 min
same,half-life at 100 µM,"[12]; fresh heparinized human blood, Subject 3, 100 μM, 37° C., read-out: Half-life",8.58 min
same,modulation of cardiac electrophysiologic parameters,[5],very weak modulator of cardiac electrophysiologic parameters
same,"No Observed Effect Level (NOEL), Combined Parameters",[5]; combined set of 6 cardiac parameters,"1,000 nM"
same,"No Observed Effect Level (NOEL), AH Interval",[5]; [16],">10,000 nM"
same,"No Observed Effect Level (NOEL), HV Interval",[5]; [16],"1,000 nM"
same,"No Observed Effect Level (NOEL), MAPD90",[5]; [16],"1,000 nM"
same,"No Observed Effect Level (NOEL), QRS Interval",[5]; [16],">10,000 nM"
same,"No Observed Effect Level (NOEL), QT Interval",[5]; [16],"1,000 nM"
same,"No Observed Effect Level (NOEL), SA Interval",[5]; [16],">10,000 nM"
same,IC50,[6],8.3 nM
same,Ki,[6],1.4 nM
same,"nH, Hill coefficient",[6]; Guinea Pig Striatum,0.7
same,"affinity for the 5-HT4 receptor, fold greater than cisapride",[6]; versus cisapride,18 fold
same,"affinity for the 5-HT4 receptor, fold greater than the major metabolite, the carboxylic acid",[6]; versus major metabolite of ATI-7505,at least 360 fold
same,5-HT4 receptor agonism,[13],highly potent 5-HT4 receptor agonist
same,EC50,"[13]; Potency EC50, concentration causing 50% maximal increase in adenylyl cyclase activity, estimated, unit nM printed in b338 only",4 nM
same,EC50,"[13]; Potency pEC50, negative logarithm of the EC50",3.55 nM
same,Efficacy % of 5HT (serotonin),[13],85%
same,EC50 fold lower than that of ATI-7500,[13]; versus ATI-7500,approximately 100 fold
same,EC50 fold lower than that of cisapride,[13]; versus cisapride,approximately 10 fold
"COc1cc(N)c(Cl)cc1C(=O)NC1CCN(CCCOc2ccc(F)cc2)CC1OC (stereo not shown) [Cisapride, reference compound]","% IKr control (10,000 nM)","[7]; human, 10000 nM",0%
same,inhibitory activity against 2D6,[1],significant inhibitory activity
same,deaths reported,[14],80
same,serious cardiac arrhythmias reportedly associated,[14],at least 341
same,"antral and small bowel contractility, colonic motor activity",[9],dose-dependent stimulation of antral and small bowel contractility with relatively little effect on colonic motor activity
same,prokinetic effects in the dog gut,[9],caused prokinetic effects in the dog gut
same,migrating motor complex (MMC) characteristics,[9],minimal effect
same,part of a dose metabolized by oxidative N-dealkylation or aromatic hydroxylation,[15],More than 90%
same,"No Observed Effect Level (NOEL), Combined Parameters",[5]; guinea pig,10 nM
same,"nH, Hill coefficient",[6]; Guinea Pig Striatum,0.8
same,Efficacy % of 5HT (serotonin),[13],77%
"COc1cc(N)c(Cl)cc1C(=O)N[C@H]1CCN(CCCCCC(=O)O[C@H]2CN3CCC2CC3)C[C@H]1OC [Compound III, (3R,4S,3′R)-6-[4-(4-Amino-5-chloro-2-methoxy-benzoylamino)-3-methoxy-piperidin-1-yl]-hexanoic acid 1-aza-bicyclo[2.2.2]oct-3-yl ester]",rate of metabolism by esterases in human plasma,[8],rapidly metabolized by esterases in human plasma
same,Ki,[11],28 nM
same,hydrolysis by esterase in human microsomes,[4],rapidly hydrolyzed by esterase
same,dependence of metabolism on NADPH / CYP450,[4]; human,not dependent on CYP450
same,half-life at 100 µM,"[12]; blood, Half-life (min)",12 min
"COc1cc(N)c(Cl)cc1C(=O)N[C@@H]1CCN(CCCCCC(=O)O[C@@H]2CN3CCC2CC3)C[C@@H]1OC [Compound VI, (3S,4R,3′S)-6-[4-(4-Amino-5-chloro-2-methoxy-benzoylamino)-3-methoxy-piperidin-1-yl]-hexanoic acid 1-aza-bicyclo[2.2.2]oct-3-yl ester]",rate of metabolism by esterases in human plasma,[8],undergo a much slower metabolism
same,Ki,[11],3.4 nM
same,hydrolysis by esterase in human microsomes,[4],quite stable with time
same,Half-life,[12]; blood,>60 min
same,half-life at 100 µM,"[12]; blood, Half-life (min)",> 60 min
COc1cc(N)c(Cl)cc1C(=O)N[C@H]1CCN(CCCCCC(=O)O[C@@H]2CN3CCC2CC3)C[C@H]1OC [Compound V],rate of metabolism by esterases in human plasma,[8],undergo a much slower metabolism
same,Ki,[11],72 nM
same,hydrolysis by esterase in human microsomes,[4],quite stable with time
same,Half-life,[12]; blood,>60 min
same,half-life at 100 µM,"[12]; blood, Half-life (min)",> 60 min
